Laboratory results taken from patent US20200206354A1, “DRUG DELIVERY COMPOSITION” (PK MED SAS, priority 2017, published 2020).
“And” between values parts separate entries of the source, which are not always exact repeats. Identical values can stand only once. Counter-ions that a name gives are not always drawn.

Columns and labels:
[1] = Lysozyme activity after extrusion, liquid-liquid extraction and Lysozyme activity Kit; format: biochemical
Experimental: The lysozyme was extracted from the drug delivery composition by liquid-liquid extraction. 50 mg of drug delivery composition were solubilized in 2.5 mL of Dichloromethane. Then 7.5 mL of cold 66 mM potassium phosphate buffer pH6.24 was added. The mix was vigorously vortex. Samples were maintained in ice between each step. After phase separation, aqueous phase was taken off and lysozyme activity was measured using Lysozyme activity Kit (from Sigma-Aldrich).
The lysozyme was extracted from the drug delivery composition by liquid-liquid extraction as described in Example 4 and lysozyme activity was titrated with lysozyme activity kit (from Sigma-Aldrich).

[2] = lysozyme powder from Sigma-Aldrich; cited from earlier work
[3] = Drug integrity after extrusion and release, HPLC peaks compared with non-extruded drug
Experimental: An Ultimate 3000 HPLC system (Thermofisher Scientific) equipped with Diode Array Detector (DAD-3000(RS)) and a Phenomenex Kinetex EVO C18, LC Column 100×2.1 mm, 2.6 μm with a pore size of 100 Å. The column was controlled to a temperature of 30° C. The mobile phase was a gradient of Ammonium Bicarbonate 20 mM pH9/Acetonitrile (95/5% to 35/65 in 5 min) with a flow rate of 0.75 mL/min. Naltrexone hydrochloride powder was accurately weighed and dissolved in water to give 450 μg/mL solution. Subsequent dilutions were made with water to get concentrations of 7-450 μg/mL. The standard solutions prepared as above were injected in the same conditions of samples. The peak areas of the naltrexone concentration were calculated. The regression of the naltrexone concentration over the peak areas was obtained and used to estimate the amount of naltrexone released from the polymer.

Compound	lysozyme activity after two extrusions (in words) ([1]; Example 4 composition (PLA, PCL masterbatch, Savinase®), extrusions at 78° C. and 165° C., results not shown)	lysozyme activity retained after extrusion ([1]; Example 5.2 composition, 50% PCL and 50% lysozyme, extruded at 78° C.) [%]	denaturation temperature [2]	degradation of the released drug by the PLA-degrading enzyme ([3]; drug delivery composition with Savinase®)	degradation of naltrexone through the extrusion process ([3]; extruded in PLA at 168° C.)
lysozyme: lysozyme powder from Sigma-Aldrich, 14.7 kDa protein used as model drug	still exhibits activity	95	76 °C and 74 °C	–	–
O=C1CC[C@@]2(O)[C@H]3Cc4ccc(O)c5c4[C@@]2(CCN3CC2CC2)[C@H]1O5 [naltrexone, naltrexone hydrochloride]	–	–	–	without any degradation	not degraded
